Experimental data as given in ChEMBL document CHEMBL3885881, “DrugMatrix”.

Species on record: Rattus norvegicus
Experiment: DrugMatrix - Regimen: Daily Repeat
Type: toxicity, organism-based, Sprague-Dawley
Parameters: regimen Daily Repeat, gender Male, age 6-8 weeks
Settings: in vivo, po, route oral GAVAGE, vehicle .5 % CMC; for BASOPHIL / EOSINOPHIL / ERYTHROCYTE COUNT / HEMATOCRIT / HEMOGLOBIN / LEUKOCYTE COUNT / LYMPHOCYTE / MEAN CORPUSCULAR HEMOGLOBIN / MEAN CORPUSCULAR HEMOGLOBIN CONCENTRATION / MEAN CORPUSCULAR VOLUME / MONOCYTE / NEUTROPHIL / PLATELET COUNT: tissue Blood; for ALANINE AMINOTRANSFERASE / ALBUMIN / ALKALINE PHOSPHATASE / ASPARTATE AMINOTRANSFERASE / BLOOD UREA NITROGEN / CHLORIDE / CHOLESTEROL / CREATINE PHOSPHOKINASE / CREATININE / GLUCOSE / PHOSPHORUS / POTASSIUM / SODIUM / TOTAL BILIRUBIN / TOTAL PROTEIN: tissue Plasma
[1] = 0 mg/kg, 72 h, dose level Control, time 3 day
[2] = 0 mg/kg, 120 h, dose level Control, time 5 day
[3] = 750 mg/kg, 72 h, dose level Low, time 3 day
[4] = 750 mg/kg, 120 h, dose level Low, time 5 day
[5] = 2000 mg/kg, 72 h, dose level High, time 3 day
[6] = 2000 mg/kg, 120 h, dose level High, time 5 day

Compound: NCC(=O)O [GLYCINE]
- BASOPHIL [1]: 0%
- EOSINOPHIL [1]: 0%
- ERYTHROCYTE COUNT [1]: 6.34 x10E6/uL
- HEMATOCRIT [1]: 37.62%
- HEMOGLOBIN [1]: 14.82 G/DL
- LEUKOCYTE COUNT [1]: 11.18 x10E3/uL
- LYMPHOCYTE [1]: 87.5%
- MEAN CORPUSCULAR HEMOGLOBIN [1]: 23.48 pg
- MEAN CORPUSCULAR HEMOGLOBIN CONCENTRATION [1]: 39.5 G/DL
- MEAN CORPUSCULAR VOLUME [1]: 59.45 fL
- MONOCYTE [1]: 1.67%
- NEUTROPHIL [1]: 10.83%
- PLATELET COUNT [1]: 1074.83 x10E3/uL
- ALANINE AMINOTRANSFERASE [1]: 36.5 u/L
- ALBUMIN [1]: 3.9 G/DL
- ALKALINE PHOSPHATASE [1]: 370.17 u/L
- ASPARTATE AMINOTRANSFERASE [1]: 63.17 u/L
- BLOOD UREA NITROGEN [1]: 16.83 mg/dL
- CHLORIDE [1]: 99.33 MEQ/L
- CHOLESTEROL [1]: 64.33 mg/dL
- CREATINE PHOSPHOKINASE [1]: 127 u/L
- CREATININE [1]: 0.55 mg/dL
- GLUCOSE [1]: 173.5 mg/dL
- PHOSPHORUS [1]: 10.08 mg/dL
- POTASSIUM [1]: 6.23 MEQ/L
- SODIUM [1]: 143.5 MEQ/L
- TOTAL BILIRUBIN [1]: 0.52 mg/dL
- TOTAL PROTEIN [1]: 6.35 G/DL
- BASOPHIL [2]: 0%
- EOSINOPHIL [2]: 0.17%
- ERYTHROCYTE COUNT [2]: 6.12 x10E6/uL
- HEMATOCRIT [2]: 37.08%
- HEMOGLOBIN [2]: 14.82 G/DL
- LEUKOCYTE COUNT [2]: 11.87 x10E3/uL
- LYMPHOCYTE [2]: 83.33%
- MEAN CORPUSCULAR HEMOGLOBIN [2]: 24.25 pg
- MEAN CORPUSCULAR HEMOGLOBIN CONCENTRATION [2]: 39.97 G/DL
- MEAN CORPUSCULAR VOLUME [2]: 60.65 fL
- MONOCYTE [2]: 1.5%
- NEUTROPHIL [2]: 15%
- PLATELET COUNT [2]: 1042.83 x10E3/uL
- ALANINE AMINOTRANSFERASE [2]: 46 u/L
- ALBUMIN [2]: 3.82 G/DL
- ALKALINE PHOSPHATASE [2]: 369.5 u/L
- ASPARTATE AMINOTRANSFERASE [2]: 65 u/L
- BLOOD UREA NITROGEN [2]: 16.33 mg/dL
- CHLORIDE [2]: 100.67 MEQ/L
- CHOLESTEROL [2]: 57.17 mg/dL
- CREATINE PHOSPHOKINASE [2]: 130 u/L
- CREATININE [2]: 0.53 mg/dL
- GLUCOSE [2]: 163.33 mg/dL
- PHOSPHORUS [2]: 9.53 mg/dL
- POTASSIUM [2]: 6.27 MEQ/L
- SODIUM [2]: 144.83 MEQ/L
- TOTAL BILIRUBIN [2]: 0.55 mg/dL
- TOTAL PROTEIN [2]: 6.32 G/DL
- BASOPHIL [3]: 0%
- EOSINOPHIL [3]: 0%
- ERYTHROCYTE COUNT [3]: 6.2 x10E6/uL
- HEMATOCRIT [3]: 37.37%
- HEMOGLOBIN [3]: 14.17 G/DL
- LEUKOCYTE COUNT [3]: 11.6 x10E3/uL
- LYMPHOCYTE [3]: 90%
- MEAN CORPUSCULAR HEMOGLOBIN [3]: 22.83 pg
- MEAN CORPUSCULAR HEMOGLOBIN CONCENTRATION [3]: 37.97 G/DL
- MEAN CORPUSCULAR VOLUME [3]: 60.17 fL
- MONOCYTE [3]: 0%
- NEUTROPHIL [3]: 10%
- PLATELET COUNT [3]: 1191.67 x10E3/uL
- ALANINE AMINOTRANSFERASE [3]: 28 u/L
- ALBUMIN [3]: 3.4 G/DL
- ALKALINE PHOSPHATASE [3]: 270.33 u/L
- ASPARTATE AMINOTRANSFERASE [3]: 46.67 u/L
- BLOOD UREA NITROGEN [3]: 9 mg/dL
- CHLORIDE [3]: 102.33 MEQ/L
- CHOLESTEROL [3]: 55.33 mg/dL
- CREATINE PHOSPHOKINASE [3]: 104.33 u/L
- CREATININE [3]: 0.4 mg/dL
- GLUCOSE [3]: 165 mg/dL
- PHOSPHORUS [3]: 10.73 mg/dL
- POTASSIUM [3]: 6.07 MEQ/L
- SODIUM [3]: 148 MEQ/L
- TOTAL BILIRUBIN [3]: 0.17 mg/dL
- TOTAL PROTEIN [3]: 5.43 G/DL
- BASOPHIL [4]: 0%
- EOSINOPHIL [4]: 0%
- ERYTHROCYTE COUNT [4]: 6.26 x10E6/uL
- HEMATOCRIT [4]: 38.2%
- HEMOGLOBIN [4]: 15 G/DL
- LEUKOCYTE COUNT [4]: 13 x10E3/uL
- LYMPHOCYTE [4]: 89.67%
- MEAN CORPUSCULAR HEMOGLOBIN [4]: 23.97 pg
- MEAN CORPUSCULAR HEMOGLOBIN CONCENTRATION [4]: 39.27 G/DL
- MEAN CORPUSCULAR VOLUME [4]: 61.1 fL
- MONOCYTE [4]: 0.33%
- NEUTROPHIL [4]: 10%
- PLATELET COUNT [4]: 1041.67 x10E3/uL
- ALANINE AMINOTRANSFERASE [4]: 32 u/L
- ALBUMIN [4]: 3.73 G/DL
- ALKALINE PHOSPHATASE [4]: 311.33 u/L
- ASPARTATE AMINOTRANSFERASE [4]: 55.33 u/L
- BLOOD UREA NITROGEN [4]: 12.33 mg/dL
- CHLORIDE [4]: 99.33 MEQ/L
- CHOLESTEROL [4]: 59.67 mg/dL
- CREATINE PHOSPHOKINASE [4]: 148 u/L
- CREATININE [4]: 0.57 mg/dL
- GLUCOSE [4]: 154 mg/dL
- PHOSPHORUS [4]: 11.67 mg/dL
- POTASSIUM [4]: 5.97 MEQ/L
- SODIUM [4]: 144.33 MEQ/L
- TOTAL BILIRUBIN [4]: 0.33 mg/dL
- TOTAL PROTEIN [4]: 6.07 G/DL
- BASOPHIL [5]: 0%
- EOSINOPHIL [5]: 0%
- ERYTHROCYTE COUNT [5]: 6.16 x10E6/uL
- HEMATOCRIT [5]: 36.47%
- HEMOGLOBIN [5]: 14 G/DL
- LEUKOCYTE COUNT [5]: 12.17 x10E3/uL
- LYMPHOCYTE [5]: 89.67%
- MEAN CORPUSCULAR HEMOGLOBIN [5]: 22.77 pg
- MEAN CORPUSCULAR HEMOGLOBIN CONCENTRATION [5]: 38.4 G/DL
- MEAN CORPUSCULAR VOLUME [5]: 59.23 fL
- MONOCYTE [5]: 1.33%
- NEUTROPHIL [5]: 9%
- PLATELET COUNT [5]: 1124.67 x10E3/uL
- ALANINE AMINOTRANSFERASE [5]: 31.33 u/L
- ALBUMIN [5]: 3.53 G/DL
- ALKALINE PHOSPHATASE [5]: 262.33 u/L
- ASPARTATE AMINOTRANSFERASE [5]: 51.67 u/L
- BLOOD UREA NITROGEN [5]: 12 mg/dL
- CHLORIDE [5]: 100.33 MEQ/L
- CHOLESTEROL [5]: 57.33 mg/dL
- CREATINE PHOSPHOKINASE [5]: 113.33 u/L
- CREATININE [5]: 0.37 mg/dL
- GLUCOSE [5]: 157.67 mg/dL
- PHOSPHORUS [5]: 12.17 mg/dL
- POTASSIUM [5]: 6.6 MEQ/L
- SODIUM [5]: 145.67 MEQ/L
- TOTAL BILIRUBIN [5]: 0.2 mg/dL
- TOTAL PROTEIN [5]: 5.57 G/DL
- BASOPHIL [6]: 0%
- EOSINOPHIL [6]: 0.33%
- ERYTHROCYTE COUNT [6]: 6.21 x10E6/uL
- HEMATOCRIT [6]: 36.87%
- HEMOGLOBIN [6]: 14.97 G/DL
- LEUKOCYTE COUNT [6]: 15.13 x10E3/uL
- LYMPHOCYTE [6]: 88.67%
- MEAN CORPUSCULAR HEMOGLOBIN [6]: 24.1 pg
- MEAN CORPUSCULAR HEMOGLOBIN CONCENTRATION [6]: 40.6 G/DL
- MEAN CORPUSCULAR VOLUME [6]: 59.4 fL
- MONOCYTE [6]: 1.33%
- NEUTROPHIL [6]: 9.67%
- PLATELET COUNT [6]: 1238.67 x10E3/uL
- ALANINE AMINOTRANSFERASE [6]: 33.67 u/L
- ALBUMIN [6]: 3.63 G/DL
- ALKALINE PHOSPHATASE [6]: 237 u/L
- ASPARTATE AMINOTRANSFERASE [6]: 55.67 u/L
- BLOOD UREA NITROGEN [6]: 12.33 mg/dL
- CHLORIDE [6]: 100.67 MEQ/L
- CHOLESTEROL [6]: 62 mg/dL
- CREATINE PHOSPHOKINASE [6]: 118.67 u/L
- CREATININE [6]: 0.5 mg/dL
- GLUCOSE [6]: 159.67 mg/dL
- PHOSPHORUS [6]: 11.77 mg/dL
- POTASSIUM [6]: 6.63 MEQ/L
- SODIUM [6]: 146.67 MEQ/L
- TOTAL BILIRUBIN [6]: 0.27 mg/dL
- TOTAL PROTEIN [6]: 5.93 G/DL
